Patent US10758513B2, “Modulators of mitochondrial protein import” (THE REGENTS OF THE UNIVERSITY OF CALIFORNIA, priority 2011, dated 2020)

Legend:
zebrafish embryos = experiment: Zebrafish embryo development; assay type: in vivo
Method: Zebrafish used for o-dianisidine staining of red blood cells in DMSO and MitoBloCK-6 treated fish were albino lines generated from crosses of TL and TU fish. Line AB were injected with the ALR morpholino. Lines were maintained in a 14-hr light/10-hr dark cycle and mated for one hour to obtain synchronized embryonic development. […] Following treatment, embryos were imaged using a Leica MZ16F fluorescent stereoscope (TexasRed filter set) at 5× magnification. […] Embryos were allowed to mature to 2 dpf and then imaged like the MitoBloCK-6 treated embryos; embryos were imaged at day 2 because of concerns with morpholino dilution. Images were resized to 300 dpi without resampling using Adobe Photoshop software.

Tim9-Tim10 complex = target: T1, Tim9-Tim10 complex (Saccharomyces cerevisiae, UniProt O74700+P87108); experiment: Tim9-Tim10 complex stability by blue native gel; assay type: biochemical, yeast; conditions: 25 and 50 μM; BN gel
T1 construct: endogenous in cells; host or cells: isolated yeast mitochondria
T1 sequence (O74700 whole entry): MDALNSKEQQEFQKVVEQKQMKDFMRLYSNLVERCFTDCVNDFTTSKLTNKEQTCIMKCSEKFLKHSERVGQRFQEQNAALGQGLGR
T1 sequence (P87108 whole entry): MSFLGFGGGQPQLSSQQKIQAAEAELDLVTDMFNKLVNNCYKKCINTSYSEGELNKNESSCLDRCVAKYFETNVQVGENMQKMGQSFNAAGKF
Method: Respiration measurements were performed with an oxygen electrode using yeast mitochondria (M) from the tim10 tim9S suppressor strain in the presence of (A) 1% DMSO (vehicle control for drug) and (B) MitoBloCK-1. Respiration was initiated with NADH addition. 25 μM MitoBloCK-1 or 1% DMSO was added once steady-state respiration had been established. As a control, CCCP was added to uncouple the electron transport chain. (C) Respiration for series with DMSO or MitoBloCK-1 addition was quantitated (n=3). Bars represent mean rates with standard deviations as error bars. (D) Membrane potential (Δψ) of mitochondria measurements of purified mitochondria were performed with the fluorescent dye rhodamine 123 using a fluorimeter. Coupled mitochondria (M) sequestered and quenched the dye fluorescence; 1% DMSO was added to determine its effect on the […]. Collapse of the Δψ initiated by CCCP was included as a control. […] (H) As in 7B, MitoBloCK-1 (25 and 50 μM) was incubated with mitochondria and assembly of the Tim9-Tim10 complex was monitored by BN gels and immunoblotting with antibodies against Tim 10.
Steady-state levels of the small Tim complexes were analyzed from mitochondria isolates from TIA110,titn10-1, and titn10-1 titn9S strains following established methods (Murphy M P, et al., (2001), Mol Cell Biol 21:6132-6138). […]

mouse liver mitochondria = experiment: Import of radiolabeled precursors into isolated mouse liver mitochondria; assay type: biochemical; set-up: import of AAC: dose or concentration left out as unconfirmed
Method: Mitochondria were purified from yeast cells grown in YPEG or selective SEG medium as described in previous studies (Glick B S, Pon L A (1995). Methods Enzymol 260:213-223). Yeast cultures were kept at a constant 25° C. with vigorous shaking during growth. After concentration was measured by BCA assay, mitochondria were stored in 25 mg/ml aliquots at −80° C. Mammalian mitochondria were isolated from 2-4 freshly excised mouse livers by differential centrifugation. Briefly, isolated livers were washed 3× with cold PBS and then suspended in 4-5 mL isolation buffer (70 mM Sucrose, 220 mM mannitol, 2rnM HEPES-KOH, pH 7.4) per gram of tissue. Livers were first chopped into small pieces and then dounced 5× using a teflon dounce. Homogenized material was then centrifuged at 1,000 RPM for […] in a clinical centrifuge and supernatants were transferred to fresh tubes. Centrifugation at 1,000 RPM for 10 min was then repeated and supernatants were transferred to microfuge tubes. Next, supernatant material was spun for 10 min at 800×g (this process was repeated a second time). The supernatants from these steps were subjected to a high-speed (12,000×g for 20 min) spin to pellet heavy membrane fractions. Pellets were washed in isolation buffer and spun again (12,000×g for 20 min). After the final centrifugation step, supernatants were discarded and heavy membrane fraction was resuspended in mammalian import buffer (250 mM sucrose, 5 mM magnesium acetate, 80 mM potassium acetate, 10 mM sodium succinate, 1 mM dithiothreitol, 0.1 mM ADP, 20 mM Hepes-KOH, pH 7.4) as described in Johnston A J, et al. (2002), J Biol Chem 277:42197-42204 and kept on ice. All subsequent imports were performed within 1 hour of isolation of mammalian mitochondria. Mitochondrial concentrations were determined by BCA assay.
Prior to import into purified mitochondria, ^35S-methionine and cysteine labeled proteins were generated with TNT Quick Coupled Transcription/Translation kits (Promega) and plasmids carrying the gene of interest. Transcription of genes was driven by either a T7 or SP6 promoter. […]

With Oc1c(Cl)cc(Cl)cc1/C=N/c1ccc(Nc2ccccc2)cc1 [MitoBloCK-6] the toxicity to fish (zebrafish embryos; concentrations higher than 2.5 μM) was “toxic to the fish” and the decreased heart rate (zebrafish embryos; embryos treated with MitoBloCK-6 or ALR morpholino) was 50%.

In the case of NC(=S)N/N=C/c1c(O)c(Br)cc2oc3c(c12)CCCC3 [MitoBloCK-1], the “steady-state stability of the Tim9-Tim10 complex” value (Tim9-Tim10 complex) is reported as “did not alter steady-state stability of the Tim9-Tim10 complex”, the “import of AAC” value (mouse liver mitochondria) is reported as “inhibited” and the “import of Hsp60” value (mouse liver mitochondria) is reported as “not altered”. The “import of Su9-DHFR” value (mouse liver mitochondria) was “not altered”.
